Data on three molecules can be found in patent publication US8580843B2, “Use of diindolylmethane (DIM) compounds and derivatives as neuroprotective agents” (Colorado State University Research Foundation, priority 2008, dated 2013).

One experiment deals with NF-κB. The conditions noted are these: proximal p65 enhancer element; cited from earlier work.
Experiment [1] deals with 3-nitrotyrosine protein nitration in astrocytes. The experiment is described as follows: Immunofluorescence of 3-nitrotyrosine adducts (protein nitration) in primary astrocytes treated with MPTP and cytokines. Type of experiment: cell-based, mouse. As to the method: Immunofluorescence. Primary astrocytes were grown to confluence on 20 mm serum-coated glass coverslips and treated with saline or MPTP (10 μM), TNF-α (10 pg/ml), and IFN-γ (1 ng/ml) with or without DIM-C-pPhtBu (10 μM), rosiglitazone (10 μM), the NOS2 inhibitor AMT (25 nM) or NOS 1 inhibitor 7-NI (10 μM), or a DMSO vehicle control 8 hours prior to analysis. Immunofluorescence to confirm culture purity was conducted on cells grown to confluence on the 20 mm glass coverslips. Blocking and antibody hybridization was conducted in 1% BSA (w/v) in PBS, and all washes were conducted in PBS. Images were acquired using a Zeiss 20× air PlanApochromat objective and 6-8 microscopic fields were examined per treatment group over no less than three independent experiments. Fluorescent secondary antibodies were used to detect GFAP (488 nmcx/519 nmcm) and Iba1 or nitrosylated protein (647 nmcx/668 nmcm), respectively, while mounting medium containing DAPI (360 nmcx/460 nmcm) was used to identify cell nuclei.
The effect of NOS2 induction by MPTP and inflammatory cytokines on global protein nitration following NO/peroxynitrite (ONOO—) formation in astrocytes was examined by immunofluorescence (FIG. 3). Immunofluorescence using antibodies against GFAP (FITC) and 3-nitrotyrosine adducts (Cy5) was employed to measure the extent of protein nitration within astrocytes treated with MPTP and cytokines, with or without inclusion of DIM-C-pPhtBu (10 μM), rosiglitazone (10 μM), the high-affinity NOS2 inhibitor AMT (25 nM), the NOSI inhibitor 7-NI (10 μM) or a DMSO vehicle control. […] Co-treatment of astroytes with DIM-C-pPhtBu prevented MPTP-induced increases in nitration, resulting in similar levels of 3-nitrotyrosine adducts as saline-treated control cells (FIG. 3C). Mean intracellular fluorescence for 3-nitrotyrosine was quantified and compared between each treatment group (FIG. 3D).

Experiment [2] relates to astrocyte activation, NOS2 and NF-κB/GFP expression in striatum. The experiment is described as follows: Anti-inflammatory efficacy in transgenic NF-κB-GFP reporter mice treated with MPTP. Type of experiment: in vivo, mice (C57B1/6 background). The conditions noted are these: 50 mg/Kg oral gavage in corn oil once per day for four days following MPTP; striatum 7 days following MPTP. How it is done: Transgenic NF-κB-GFP reporter mice (C57B1/6 background) were exposed to MPTP (2 injections of 15 mg/kg, 12 hours apart) in the presence and absence of DIM-C-pPhtBu and assessed for activation of astrocytes, expression of NOS2, and expression of GFP (representing NF-kB activity). DIM-C-pPhtBu was administered once per day for four days following MPTP treatment by oral gavage in corn oil at 50 mg/Kg and frozen sections through the striatum were prepared 7 days following MPTP. Immunofluorescent images were collected using a 40× Zeiss PlanApochromat objective for GFAP as marker for astrocytes (purple), NOS2 (red), green fluorescent protein (GFP; green), and DAPI (blue; DNA stain). Co-location of red and green channels is depicted in the image as yellow. […] This activated glial phenotype was inhibited by treatment with DIM-C-pPhtBu.

Experiment [3] deals with 3-nitrotyrosine protein adducts in dopaminergic neurons of the substantia nigra. The experiment is described as follows: Protein nitration in dopaminergic neurons of mice treated with MPTP. Type of experiment: in vivo, C57B1/6 mice. The conditions noted are these: 50 mg/Kg oral gavage in corn oil once per day for four days following MPTP; substantia nigra 7 days following MPTP. As to the method: C57B1/6 mice were treated with MPTP (2 injections of 15 mg/kg, 12 hours apart) in the presence and absence of DIM-C-pPhOCH3 (DIM5) and assessed for 3-nitrotyrosine protein adducts (a marker of nitrosative stress and excessive NO/peroxynitrite formation). DIM-C-pPhOCH3 was administered once per day for four days following MPTP treatment by oral gavage in corn oil at 50 mg/Kg and frozen sections through the substantia nigra were prepared 7 days following MPTP. Immunofluorescence images were collected using a 40× Zeiss PlanApochromat objective for tyrosine hydroxylase (green), 3-nitrotyrosine (red), and DAPI (blue; DNA/nuclear stain). […] DIM-C-pPhOCH3 prevented protein nitration in dopaminergic neurons in mice treated with MPTP.

Take `CN(CCOc1ccc(CC2SC(=O)NC2=O)cc1)c1ccccn1` (centres unmarked) [rosiglitazone, 5-((4-(2-(methyl-2-pyridinylamino)ethoxy)phenyl)methyl)-2,4-thiazolidinedione, reference compound]: the “Effect on NF-κB in RAW macrophages” value with NF-κB is on record as “antagonize NF-κB by stabilizing NCoR2”.

As to `CC(C)(C)c1ccc(C(c2c[nH]c3ccccc23)c2c[nH]c3ccccc23)cc1` [DIM-C-pPhtBu, 1,1-bis(3′-indolyl)-1-(p-t-butylphenyl)methane], the “MPTP-induced increase in 3-nitrotyrosine formation” value in experiment [1] (10 μM co-treatment, astrocytes, FIG. 3D) is “prevented”. Further, the “MPTP-induced activated glial phenotype (hypertrophic astrocytes expressing NOS2 and NF-κB/GFP)” value in experiment [2] is “inhibited”.

On to `COc1ccc(C(c2c[nH]c3ccccc23)c2c[nH]c3ccccc23)cc1` [DIM-C-pPhOCH3, 1,1-bis(3′-indolyl)-1-(p-methoxyphenyl)methane], for which, in experiment [1] (FIG. 7(D), concentration not given), the “Protein nitration in primary astrocytes induced by MPTP and TNF-α/IFN-γ” value was “prevents protein nitration”. For the same molecule, in experiment [3], the “Protein nitration (3-nitrotyrosine) in dopaminergic neurons” value is given as “completely suppressed”.
